Assay results taken from patent US11117931B2, “Antimicrobial peptide derived from Hp1404 peptide and uses thereof” (priority 2017, dated 2021).
Where no end group is shown, it is not given here.

Legend:
[1] = test system: E. coli; experiment: MIC, E. coli; format: cell-based, Escherichia coli; details: E. coli (ATCC 25922), 18 hours at 37° C.
Description: (§1) To compare the antimicrobial activity among the peptides produced by the method of Example 1, the inventors of the present invention measured the minimal growth inhibitory concentration (MIC), which is minimum concentration of the peptide showing no dissociation of bacterial cells.
(§2) Specifically, the bacterial strain described in the following Table 2 was purchased and cultured to a mid-log phase in each medium with a composition suitable for each strain. Then, after dilution to bacterial cell concentration of 2×10^4 cells/100 μl, the cells were inoculated to a microtiter plate (NUNC, USA). Thereafter, Hp1404-T1, Hp1404-T1a, Hp1404-T1b, Hp1404-T1c, Hp1404-T1d or Hp1404-T1e peptide which has been synthesized in Example 1 above was subjected to serial dilution, ½ times for each, with BSA (bovine serum albumin) solution in a 96-well plate. After adding the cells to a plate, the cells were cultured for 18 hours at 37° C. By using a microtiter plate reader (Merck Elisa reader, Germany), the absorbance was measured at a wavelength of 600 nm to determine the MIC value of each bacterial strain. As a control group, Hp1404 as a mother peptide was used.

[2] = Cytotoxicity in normal cell line (MTT); format: cell-based; details: human, HaCaT keratinocytes, read-out: Cell survival ability; for viability at 24 h, 6.25 µM: peptide concentration 6.25 μM; for viability at 24 h, 12.5 µM: peptide concentration 12.5 μM; for viability at 24 h, 25 µM: peptide concentration 25 μM; for viability at 24 h, 50 µM: peptide concentration 50 μM; for viability at 24 h, 100 µM: peptide concentration 100 μM; for viability at 24 h, 200 µM: peptide concentration 200 μM, HaCaT
Method: To determine the cytotoxicity of the peptide produced by the method of Example 1 in normal cell line, toxicity was measured by using human keratinocytes (HaCaT cell line, Dr. N E. Fusenig, Heidelberg, Germany).
Specifically, HaCaT cells which have been cultured in DMEM medium containing 10% FBS (Fetal Bovine Serum) were aliquoted in a 96-well plate to have 2×10^5 cells per well. After culturing them for 24 hours, the cells were subjected to a treatment with Hp1404, Hp1404-T1, Hp1404-T1a, Hp1404-T1b, Hp1404-T1c, Hp1404-T1d, or Hp1404-T1e, each at concentration of 6.25, 12.5, 25.0, 50.0, 100.0 or 200.0 μM/well, followed by reaction for 24 hours in a 5% CO2 incubator. After 24 hours, a reaction solution containing 0.5 mg/ml MTT (Thiazolyl Blue Tetrazolium Bromide) dissolved in physiological saline (PBS) was added in an amount of 100 μl to each well and the reaction was allowed to occur for 4 hours. After that, the supernatant was removed, and, by dissolving MTT crystals that are formed by adding 200 μl of DMSO (dimethyl sulfoxide), the absorbance at 560 nm was measured to determine the cell survival ability.

[3] = test system: S. aureus (ATCC 25923); experiment: Anti-biofilm activity (crystal violet); format: cell-based, Staphylococcus aureus; details: 24 hours at 37° C.
Method: To compare the antimicrobial activity among the peptides produced by the method of Example 1, the inventors of the present invention measured the biofilm inhibitory concentration value of the peptide showing no dissociation of bacterial cells.
Specifically, among the bacterial strains described in the above Table 2, bacteria showing favorable biofilm forming were cultured to a mid-log phase in each medium. Then, after dilution to bacterial cell concentration of 5×10^4 cells/100 μl, the cells were inoculated to a microtiter plate (PSL). Thereafter, Hp1404, Hp1404-T1c, Hp1404-T1d or Hp1s404-T1e peptide which has been synthesized in Example 1 above was diluted, 1/10 times for each, with 10 mM sodium phosphate (pH 7.2) solution in a 96-well plate. After adding the cells (10 μl) to a plate, the cells were cultured for 24 hours at 37° C. After removing the supernatant completely, the cells were fixed with 100% methanol for 15 minutes and reacted for 1 hour with Crystal violet staining solution followed by rinsing for 3 times. Then, after dissolving in 95% ethanol, the absorbance was measured at a wavelength of 595 nm by using a microtiter plate reader to determine the biofilm minimal inhibitory concentration value of each bacterial strain.

[4] = test system: L. monocytogenes; experiment: MIC, L. monocytogenes; format: cell-based, Listeria monocytogenes; details: L. monocytogenes (KCTC 3710), 18 hours at 37° C.
Description: as §1, §2

[5] = test system: S. aureus; experiment: MIC, S. aureus; format: cell-based, Staphylococcus aureus; details: S. aureus (ATCC 25923), 18 hours at 37° C.
Description: as §1, §2

[6] = test system: erythrocytes of a mouse (Balb/c); experiment: Hemolytic activity; format: cell-based
Method: To compare the cytotoxicity among the peptides that are produced by the method of Example 1, erythrocyte hemolytic activity of the synthesized peptide was measured.
Specifically, erythrocytes of a mouse (Balb/c, 6 week old, female) were diluted in physiological saline (PBS, pH 7.0) to have concentration of 8%, and then subjected to a treatment with Hp1404, Hp1404-T1, Hp1404-T1a, Hp1404-T1b, Hp1404-T1c, Hp1404-T1d or Hp1404-T1e, each at concentration of 6.25, 12.5, 25.0, 50.0, 100.0 and 200.0 μM/well, respectively, followed by a reaction for 1 hour at 37° C. After that, the amount of hemoglobin contained in a supernatant collected by centrifuge at 1,000×g was determined by measuring the absorbance at a wavelength of 414 nm. As a control group to be used as a reference for cell disruption level, the supernatant collected by a treatment with 1% Triton X-100 (Sigma, USA) and a reaction for 1 hour at 37° C. was used to measure the absorbance. By setting the resulting absorbance value at 100%, the hemolytic activity of each peptide was calculated using the following mathematical formula 1. Erythrocyte disrupting ability (hemolysis) (%)=(Absorbance A−Absorbance B)/(Absorbance C−Absorbance B)×100 [Mathematical formula 1] (in the above formula, Absorbance A indicates the absorbance of a reaction solution treated with each peptide, in which the absorbance is measured at a wavelength of 414 nm; Absorbance B indicates the absorbance of a reaction solution treated with PBS, in which the absorbance is measured at a wavelength of 414 nm; and Absorbance C indicates the absorbance of a reaction solution treated with 1% Triton X-100, in which the absorbance is measured at a wavelength of 414 nm).

With ILKKLLKKVKKI-NH2 [Hp1404-T1e] the Minimal inhibitory concentration [1] was greater than 25 µM, the viability at 24 h, 6.25 µM [2] was 100% and the viability at 24 h, 12.5 µM [2] was 100%. It also gave a viability at 24 h, 25 µM [2] of 100%, a viability at 24 h, 50 µM [2] of 100% and a viability at 24 h, 100 µM [2] of 100%. The viability at 24 h, 200 µM [2] was 100%, the “Biofilm minimal inhibitory concentration” value [3] was 12.5 µM and the Minimal inhibitory concentration [4] was greater than 25 µM. The Minimal inhibitory concentration [5] was 3.13 µM, the Erythrocyte disrupting ability ([6]; peptide concentration 6.25 μM) was 0.10% and the Erythrocyte disrupting ability ([6]; peptide concentration 12.5 μM) was 0.28%. The Erythrocyte disrupting ability ([6]; peptide concentration 25 μM) was 0.41%, the Erythrocyte disrupting ability ([6]; peptide concentration 50 μM) was 0% and the Erythrocyte disrupting ability ([6]; peptide concentration 100 μM) was 0.15%.

Work on GILGKLWEGVKSIF-NH2 [Hp1404] yielded a Minimal inhibitory concentration [1] of 6.25 µM, a viability at 24 h, 6.25 µM [2] of 100% and a viability at 24 h, 12.5 µM [2] of 100%. It also gave a viability at 24 h, 25 µM [2] of 100%, a viability at 24 h, 50 µM [2] of 30.5% and a viability at 24 h, 100 µM [2] of 0.11%. For the same substance, the viability at 24 h, 200 µM [2] was 0%, the “Biofilm minimal inhibitory concentration” value [3] was 3.13 µM and the Minimal inhibitory concentration [4] was 3.13 µM. For the same substance, the Minimal inhibitory concentration [5] was 3.13 µM, the Erythrocyte disrupting ability ([6]; peptide concentration 6.25 μM) was 0.01% and the Erythrocyte disrupting ability ([6]; peptide concentration 12.5 μM) was 2.16%. It also gave an Erythrocyte disrupting ability ([6]; peptide concentration 25 μM) of 11.01%, an Erythrocyte disrupting ability ([6]; peptide concentration 50 μM) of 55.41% and an Erythrocyte disrupting ability ([6]; peptide concentration 100 μM) of 92.64%. It also gave an Erythrocyte disrupting ability ([6]; peptide concentration 200 μM, 1 hour at 37° C., relative to 1% Triton X-100) of 100%.

ILKKLLKKVKSI-NH2 [Hp1404-T1d] gave a Minimal inhibitory concentration [1] greater than 25 µM, a viability at 24 h, 6.25 µM [2] of 100% and a viability at 24 h, 12.5 µM [2] of 53.9%. It also gave a viability at 24 h, 25 µM [2] of 38.9%, a viability at 24 h, 50 µM [2] of 33.1% and a viability at 24 h, 100 µM [2] of 34.6%. The “Biofilm minimal inhibitory concentration” value [3] was 6.25 µM, the Minimal inhibitory concentration [4] was greater than 25 µM and the Minimal inhibitory concentration [5] was 6.25 µM. The Erythrocyte disrupting ability ([6]; peptide concentration 6.25 μM) was 0%, the Erythrocyte disrupting ability ([6]; peptide concentration 12.5 μM) was 0% and the Erythrocyte disrupting ability ([6]; peptide concentration 25 μM) was 0%. It also gave an Erythrocyte disrupting ability ([6]; peptide concentration 50 μM) of 0% and an Erythrocyte disrupting ability ([6]; peptide concentration 100 μM) of 0%.
